Laboratory results taken from the NIST ThermoML archive (doi:10.1021/acs.jced.5b00135).
Numbers after ± are expanded uncertainties.

Experiments:
[1] = Crystal; DTA
[2] = Molar enthalpy of transition or fusion; conditions: Crystal; DSC

Normal melting temperature [1]: 128.50 ± 0.7 °C
Molar enthalpy of transition or fusion [2]: 5.16 ± 0.263 kcal/mol
Compound: C=CC(=O)NC(C)(C)C [N-tert-butylacrylamide]
